Molecular target: T1, PDE 4 enzyme
T1 construct: % at 10^−7; other: at 10^−7; PDE 4 from U937 cell line; other: PDE 4 isolated from U937 cell line; SPA with 3H-cAMP
Assay: PDE 4 enzyme inhibition (SPA)
Type: biochemical
Conditions: PDE 4 isolated from U937 cell line; SPA with 3H-cAMP
Description: a) PDE 4 Enzyme Purification
PDE 4 enzyme was isolated from U937 cell line according to the method of Nielson et al. (J. Allergy Clin. Immunol. 1990, vol. 86, pages 801-807) partially modified for the FPLC technique (Fast Protein Liquid Chromatography).
U-937cell line (Istituto Zooprofilattico Sperimentale, Brescia, Italy) was maintained in RPMI 1640, with 10% foetal calf serum and 2 mM glutamine, at a cell density between 1×10^6 and 8×10^6 cells per ml in an incubator at 37° C. with 5% CO2.
U937 suspension was homogenised in a buffer containing 10 mM TRIS (tri-(hydroxymethyl)-aminomethane), 5 mM MgCl2, 4 mM EGTA (ethyleneglycol-bis-(β-aminoethylether)-N,N,N′N′-tetra-acetic acid), 5 mM […]-mercaptoethanol, 1 μM leupeptin, 1 μM pepstatin, 1% TRITON x-100, and 100 μM phenylmethyl sulfonyl fluoride (PMSF) at pH 7.8.
The homogenate was centrifuged and the supernatant was used for the purification of the PDE 4 enzyme; it was seeded on a column connected to a biologic chromatography system (FPLC, BIO RAD).
PDE 4 enzyme was eluted with a linear gradient, from 0.05 M to 1 M of sodium acetate, and elution fractions were collected for PDE4 activity assay.
The fractions containing PDE4 activity were collected and, after an overnight dialysis against water to remove sodium acetate, were concentrated to 30% volume with an Amicon filtration system (using YM10 membrane filter).
Ethylene glycol (30% v/v) was added and the sample was stored at −20° C. in a single aliquot until the use.
PDE 4 activity assay was performed using Scintillation Proximity Assay (SPA) Amershan kit consisting of tracer ^3H-cAMP, PDE assay buffer (10×solution: 500 mM TRIS/HCl pH 7.5, 83 mM MgCl2 and 17 mM EGTA) and Yttrium SPA PDE beads (containing 18 mM zinc sulphate).
The radioactivity of the beads was measured using a scintillation counter (Packard model MINAXI β TRI-CARB 4000 SERIES).
The IC50 values were calculated from concentration-inhibition curves by non linear regression analysis using the program ORIGIN 3.5 (MICROCAL SOFTWARE INC.) and each fitting was the mean±SEM of 3 experiments using different PDE 4 preparations.

IC50	SMILES
0.037 µM	COc1ccc2c(Cc3c(Cl)cncc3Cl)nnc(-c3cccc(C(=O)O)c3)c2c1 [Compound 2, 3-[4-(3,5-dichloro-pyridin-4-ylmethyl)-7-methoxy-phthalazin-1-yl]-benzoic Acid]
0.048 µM	COc1ccc2c(Cc3c(Cl)cncc3Cl)nnc(-c3sccc3C(=O)O)c2c1 [Compound 10, 2-[4-(3,5-dichloro-pyridin-4-ylmethyl)-7-methoxy-phthalazin-1-yl]-thiophene-3-carboxylic Acid]
